In patent US9079886B2, “Substituted triazole derivatives as gamma secretase modulators” (Janssen Pharmaceuticals, Inc., priority 2010, dated 2015):
Counter-ions that a name gives are not always drawn. Like-named read-outs stand apart in the source and are kept apart here.

How the values were obtained:
[1] = tested on: Aβ42 and Aβtotal in the soluble fraction of brain homogenates; test: In vivo Aβ42 lowering: brain soluble Aβ42 and Aβtotal by ELISA after a single oral dose; parameters: species or system mouse; details: dose 30 mg/kg oral dosing, 4 h after dosing; for response vs control in vivo at 30 mg/kg: Mus musculus, po, 4 h
Source text: To determine whether acute administration of an Aβ42 lowering agent would reduce Aβ42 levels in vivo, non-transgenic rodents, e.g. mice or rats were used. Animals treated with the Aβ42 lowering agent were examined and compared to those untreated or treated with vehicle and brain levels of soluble Aβ42 and total A13 were quantitated by standard techniques, for example, using ELISA. Treatment periods varied from hours (h) to days and were adjusted based on the results of the Aβ42 lowering once a time course of onset of effect could be established.
A typical protocol for measuring Aβ42 lowering in vivo is shown but it is only one of many variations that could be used to optimize the levels of detectable Aβ. For example, Aβ42 lowering compounds were formulated in 20% of Captisol® (a sulfobutyl ether of β-cyclodextrin) in water or 20% hydroxypropyl β cyclodextrin. The Aβ42 lowering agents were administered as a single oral dose or by any acceptable route of administration to overnight fasted animals. After 4 h, the animals were sacrificed and Aβ42 levels were analysed.
Blood was collected by decapitation and exsanguinations in EDTA-treated collection tubes. Blood was centrifuged at 1900 g for 10 minutes (min) at 4° C. and the plasma recovered and flash frozen for later analysis. The brain was removed from the cranium and hindbrain. The cerebellum was removed and the left and right hemisphere were separated. The left hemisphere was stored at −18° C. for quantitative analysis of test compound levels. The right hemisphere was rinsed with phosphate-buffered saline (PBS) buffer and immediately frozen on dry ice and stored at −80° C. until homogenization for biochemical assays.
Mouse brains from non-transgenic animals were resuspended in 8 volumes of 0.4% DEA (diethylamine)/50 mM NaCl containing protease inhibitors (Roche-11873580001 or 04693159001) per gram of tissue, e.g. for 0.158 g brain, add 1.264 ml of 0.4% DEA. All samples were homogenized in the FastPrep-24 system (MP Biomedicals) using lysing matrix D (MPBio #6913-100) at 6 m/s for 20 seconds. Homogenates were centrifuged at 221.300×g for 50 min. The resulting high speed supernatants were then transferred to fresh eppendorf tubes. Nine parts of supernatant were neutralized with 1 part 0.5 M Tris-HCl pH 6.8 and used to quantify Aβtotal and Aβ42.
To quantify the amount of Aβtotal and Aβ42 in the soluble fraction of the brain homogenates, Enzyme-Linked-Immunosorbent-Assays were used. Briefly, the standards (a dilution of synthetic Aβ1-40 and Aβ-42, Bachem) were prepared in 1.5 ml Eppendorf tube in Ultraculture, with final concentrations ranging from 10000 to 0.3 pg/ml. The samples and standards were co-incubated with HRPO-labelled N-terminal antibody for Aβ42 detection and with the biotinylated mid-domain antibody 4G8 for Aβtotal detection. 50 μl of conjugate/sample or conjugate/standards mixtures were then added to the antibody-coated plate (the capture antibodies selectively recognize the C-terminal end of Aβ42, antibody JRF/cAB42/26, for Aβ42 detection and the N-terminus of Aβ, antibody JRF/rAβ/2, for Aβtotal detection). The plate was allowed to incubate overnight at 4° C. in order to allow formation of the antibody-amyloid complex. Following this incubation and subsequent wash steps the ELISA for Aβ42 quantification was finished by addition of Quanta Blu fluorogenic peroxidase substrate according to the manufacturer's instructions (Pierce Corp., Rockford, Il). A reading was performed after 10 to 15 min (excitation 320 nm/emission 420 nm).
For Aβtotal detection, a Streptavidine-Peroxidase-Conjugate was added, followed 60 min later by an addional wash step and addition of Quanta Blu fluorogenic peroxidase substrate according to the manufacturer's instructions (Pierce Corp., Rockford, Il). A reading was performed after 10 to 15 min (excitation 320 nm/emission 420 nm). […]

[2] = untreated animals (Ctrl) set at 100, read-out: Aβ42 (% vs Ctrl) _Mean
[3] = untreated animals (Ctrl) set at 100, read-out: Aβtotal (% vs Ctrl)_Mean
[4] = untreated animals (Ctrl) set at 100, 30 mg/kg

| melting point | Structure (SMILES) | further results |
| --- | --- | --- |
| 131.5 °C | COc1cc(Nc2nc(OC3CCCC(C(F)(F)F)C3)n(C(C)C)n2)ccc1-c1ccnc(C)c1 (centres unmarked) (as salt: HCl) (hydrate or solvate) [Compound 117] |  |
| 134 °C | COc1cc(Nc2nc(N3CCCC(C(F)(F)F)C3)n(C(C)C)n2)ccc1-n1cnc(C)n1 (racemic) [Compound 59] | response vs control in vivo at 30 mg/kg [1, 2]: 69%; response vs control in vivo at 30 mg/kg [1, 3]: 94% |
| 141.6 °C | COc1cc(Nc2nc(N3CCCC(C(F)(F)F)C3)n(C(C)C)n2)ccc1-n1cnc(C)n1 (single isomer, unassigned) [Compound 108] | response vs control in vivo at 30 mg/kg [1, 2]: 70%; Aβtotal (% vs Ctrl)_Mean [1, 4]: 94 % vs Ctrl |
| 140.1 °C | COc1cc(Nc2nc(N3CCCC(C(F)(F)F)C3)n(C(C)C)n2)ccc1-n1cnc(C)n1 (single isomer, unassigned) [Compound 109] | Aβ42 (% vs Ctrl) _Mean [1, 4]: 85 % vs Ctrl; Aβtotal (% vs Ctrl)_Mean [1, 4]: 117 % vs Ctrl |
| 179 °C | COc1cc(Nc2nc(Cc3cccc(C(F)(F)F)c3)n(CCNC(C)=O)n2)ccc1-n1cnc(C)c1 [Compound 1] |  |
| 199.9 °C | COc1cc(Nc2nc(N3CCCC(C(F)(F)F)C3)n(C)n2)ccc1-n1cnc(C)c1 (centres unmarked) [Compound 2] |  |
| 202.7 °C | COc1cc(Nc2nc(Oc3ccccc3Cl)n(C(C)C)n2)ccc1-n1cnc(C)n1 [Compound 4] |  |
| 157.2 °C | COc1cc(Nc2nc(Oc3cccc(Cl)c3C)n(C(C)C)n2)ccc1-n1cnc(C)n1 [Compound 8] |  |
| 158.4 °C | COc1cc(NC(=O)c2nc(Oc3ccc(F)cc3C)n(C(C)C)n2)ccc1-n1cnc(C)c1 [Compound 9] |  |
| 185.1 °C | COc1nc(Nc2nc(-c3cccc(C(F)(F)F)c3)n(C(C)C)n2)ccc1-n1cnc(C)c1 [Compound 17] |  |
| 164.2 °C | COc1cc(Nc2nc(N3CCCC(c4ccccc4)C3)n(C(C)C)n2)ccc1-n1cnc(C)c1 (centres unmarked) [Compound 18] |  |
| 210.1 °C | COc1cc(Nc2nc(Oc3ccccc3Cl)n(C)n2)ccc1-n1cnc(C)c1 [Compound 51] |  |
| 169.9 °C | COc1cccc(C2CCN(c3nc(Nc4ccc(-n5cnc(C)c5)c(OC)c4)nn3C(C)C)C2)c1 (centres unmarked) [Compound 53] |  |
| 189.4 °C | COc1cc(Nc2nc(N3C[C@@H](C)O[C@@H](C)C3)n(C(C)C)n2)ccc1-n1cnc(C)c1 [Compound 55] |  |
| 170.1 °C | COc1cc(Nc2nc(N3CCc4ccccc4C3)n(C)n2)ccc1-n1cnc(C)c1 [Compound 56] |  |
| 214.5 °C | COc1cc(Nc2nc(N3CCc4ccccc4C3)n(C(C)C)n2)ccc1-n1cnc(C)c1 [Compound 57] |  |
|  | COc1cc(Nc2nc(N3CCOC(c4cccc(C)c4)C3)n(C(C)C)n2)ccc1-n1cnc(C)c1 (centres unmarked) [Compound 58] | response vs control in vivo at 30 mg/kg [1, 2]: 88%; response vs control in vivo at 30 mg/kg [1, 3]: 89% |
| 184.2 °C | Cc1cc(-c2ccc(Nc3nc(-c4cccc(C(F)(F)F)c4)n(C)n3)cc2)ccn1 [Compound 60] |  |
| 175 °C | COc1cc(Nc2nc(Oc3ccccc3Cl)n(C)n2)ccc1-c1ccnc(C)c1 [Compound 61] |  |
|  | COc1cc(Nc2nc(N3CCCC(C(F)(F)F)C3)n(C(C)C)n2)ccc1-c1ccnc(C)c1 (centres unmarked) [Compound 67] | response vs control in vivo at 30 mg/kg [1, 2]: 60%; response vs control in vivo at 30 mg/kg [1, 3]: 89% |
|  | COc1cc(Nc2nc(Oc3ccccc3Cl)n(C(C)C)n2)ccc1-c1ccnc(C)c1 [Compound 69] | response vs control in vivo at 30 mg/kg [1, 2]: 63%; response vs control in vivo at 30 mg/kg [1, 3]: 97% |
| 204.1 to 205.4 °C | Cc1cc(F)ccc1Oc1nc(Nc2ccc(-c3ccncc3)cc2)nn1C(C)C [Compound 112] |  |
| 220.7 °C | Cn1nc(Nc2ccc(-c3ccncc3)cc2)nc1-c1cccc(C(F)(F)F)c1 [Compound 113] |  |
| 177.1 °C | COc1cc(Nc2nc(N3CCN(C(=O)OC(C)(C)C)CC3)n(C(C)C)n2)ccc1-c1ccnc(C)c1 [Compound 132] |  |

| melting point | Structure (SMILES) | further results |
| --- | --- | --- |
|  | Cc1cc(-c2ccc(Nc3nc(N4CCOC(C(F)(F)F)C4)n(C(C)C)n3)cc2)ccn1 (centres unmarked) [Compound 133] | response vs control in vivo at 30 mg/kg [1, 2]: 67%; response vs control in vivo at 30 mg/kg [1, 3]: 94% |
| 221.9 °C | COc1cc(Nc2nc(-c3cccc(C(F)(F)F)c3)n(C(C)C)n2)ccc1-c1ccnc(C)c1 [Compound 136] |  |
| 210.3 °C | Cc1cc(-c2ccc(Nc3nc(-c4cccc(C(F)(F)F)c4)n(C(C)C)n3)cc2)ccn1 [Compound 137] |  |
| 199.6 °C | Cc1cc(-c2ccc(Nc3nc(-c4cccc(C(F)(F)F)c4)n(C(C)C)n3)cc2F)ccn1 [Compound 138] |  |
|  | Cc1cc(-c2ccc(Nc3nc(Oc4ccccc4Cl)n(C(C)C)n3)cc2F)ccn1 [Compound 141] | response vs control in vivo at 30 mg/kg [1, 2]: 78%; response vs control in vivo at 30 mg/kg [1, 3]: 98% |
| 90.1 °C | COc1cc(Nc2nc(Oc3ccccc3Cl)n(CC(OC)OC)n2)ccc1-c1ccnc(C)c1 [Compound 147] |  |
| 138.6 °C | COc1cc(Nc2nc(Oc3ccccc3Cl)n(CCNC(C)C)n2)ccc1-c1ccnc(C)c1 [Compound 149] |  |
| 222.6 °C | Cc1cc(-c2ccc(Nc3nc(Oc4c(C)cccc4Cl)n(C(C)C)n3)cc2)ccn1 [Compound 155] |  |
| 159.6 °C | Cc1cc(-c2ccc(Nc3nc(Oc4cccc(Cl)c4C)n(C(C)C)n3)cc2)ccn1 [Compound 157] |  |
| 125.4 °C | COc1cc(Nc2nc(Oc3cccc(Cl)c3)n(C(C)C)n2)ccc1-c1ccnc(C)c1 [Compound 158] |  |
|  | COc1cc(Nc2nc(Oc3c(F)cccc3Cl)n(C(C)C)n2)ccc1-c1ccnc(C)c1 [Compound 160] | response vs control in vivo at 30 mg/kg [1, 2]: 77%; response vs control in vivo at 30 mg/kg [1, 3]: 83% |
| 132.7 °C | Cc1cc(-c2ccc(Nc3nc(Oc4cc(F)ccc4Cl)n(C(C)C)n3)cc2)ccn1 [Compound 161] |  |
| 172.7 °C | COc1cc(Nc2nc(Oc3ccc(F)cc3C)n(C(C)C)n2)ccc1-c1ccnc(C)c1 [Compound 163] |  |
| 138.9 °C | Cc1cc(-c2ccc(Nc3nc(Oc4ccc(F)cc4C)n(C(C)C)n3)cc2)ccn1 [Compound 164] |  |
| 159.6 °C | COc1cc(Nc2nc(Oc3ccccc3C(F)(F)F)n(C)n2)ccc1-c1ccnc(C)c1 [Compound 166] |  |
| 145.1 °C | COc1cc(Nc2nc(Oc3cc(C(F)(F)F)ccc3F)n(C)n2)ccc1-c1ccnc(C)c1 [Compound 168] |  |
| 134.8 °C | COc1cc(Nc2nc(Oc3ccc(F)cc3C(F)(F)F)n(C(C)C)n2)ccc1-c1ccnc(C)c1 [Compound 169] |  |
| 169.3 °C | COc1cc(Nc2nc(Oc3cccc(N4CCOCC4)c3)n(C(C)C)n2)ccc1-c1ccnc(C)c1 [Compound 171] |  |
| 158.4 °C | COc1cc(Nc2nc(N3CCCN(C(C)=O)CC3)n(C(C)C)n2)ccc1-c1ccnc(C)c1 [Compound 176] |  |
| 165.9 to 166.9 °C | Cc1cc(F)ccc1Oc1nc(Nc2ccc(-c3ccnc(C(F)(F)F)c3)cc2)nn1C(C)C [Compound 177] |  |
| 179.2 °C | Cn1nc(Nc2ccc(-c3ccnc(C(F)(F)F)c3)cc2)nc1-c1cccc(C(F)(F)F)c1 [Compound 178] |  |
| 142.7 to 144.7 °C | COc1ccc(-c2ccc(Nc3nc(Oc4ccc(F)cc4C)n(C(C)C)n3)cc2)cn1 [Compound 179] |  |
| 132.8 to 143.6 °C | COc1cc(-c2ccc(Nc3nc(Oc4ccc(F)cc4C)n(C(C)C)n3)cc2)ccn1 [Compound 180] |  |
